Drawing on US20120264735A1 (priority 2009, published 2012), this text covers IC50 for 38 compounds.

Structures are written as SMILES. Where only a bound is given, the exact number is not on record here.

The assay deals with T1, c-Met kinase (recombinant c-Met) (Homo sapiens, UniProt P08581).
T1 construct: 0.27 nM recombinant c-Met
T1 sequence (P08581 25-1390): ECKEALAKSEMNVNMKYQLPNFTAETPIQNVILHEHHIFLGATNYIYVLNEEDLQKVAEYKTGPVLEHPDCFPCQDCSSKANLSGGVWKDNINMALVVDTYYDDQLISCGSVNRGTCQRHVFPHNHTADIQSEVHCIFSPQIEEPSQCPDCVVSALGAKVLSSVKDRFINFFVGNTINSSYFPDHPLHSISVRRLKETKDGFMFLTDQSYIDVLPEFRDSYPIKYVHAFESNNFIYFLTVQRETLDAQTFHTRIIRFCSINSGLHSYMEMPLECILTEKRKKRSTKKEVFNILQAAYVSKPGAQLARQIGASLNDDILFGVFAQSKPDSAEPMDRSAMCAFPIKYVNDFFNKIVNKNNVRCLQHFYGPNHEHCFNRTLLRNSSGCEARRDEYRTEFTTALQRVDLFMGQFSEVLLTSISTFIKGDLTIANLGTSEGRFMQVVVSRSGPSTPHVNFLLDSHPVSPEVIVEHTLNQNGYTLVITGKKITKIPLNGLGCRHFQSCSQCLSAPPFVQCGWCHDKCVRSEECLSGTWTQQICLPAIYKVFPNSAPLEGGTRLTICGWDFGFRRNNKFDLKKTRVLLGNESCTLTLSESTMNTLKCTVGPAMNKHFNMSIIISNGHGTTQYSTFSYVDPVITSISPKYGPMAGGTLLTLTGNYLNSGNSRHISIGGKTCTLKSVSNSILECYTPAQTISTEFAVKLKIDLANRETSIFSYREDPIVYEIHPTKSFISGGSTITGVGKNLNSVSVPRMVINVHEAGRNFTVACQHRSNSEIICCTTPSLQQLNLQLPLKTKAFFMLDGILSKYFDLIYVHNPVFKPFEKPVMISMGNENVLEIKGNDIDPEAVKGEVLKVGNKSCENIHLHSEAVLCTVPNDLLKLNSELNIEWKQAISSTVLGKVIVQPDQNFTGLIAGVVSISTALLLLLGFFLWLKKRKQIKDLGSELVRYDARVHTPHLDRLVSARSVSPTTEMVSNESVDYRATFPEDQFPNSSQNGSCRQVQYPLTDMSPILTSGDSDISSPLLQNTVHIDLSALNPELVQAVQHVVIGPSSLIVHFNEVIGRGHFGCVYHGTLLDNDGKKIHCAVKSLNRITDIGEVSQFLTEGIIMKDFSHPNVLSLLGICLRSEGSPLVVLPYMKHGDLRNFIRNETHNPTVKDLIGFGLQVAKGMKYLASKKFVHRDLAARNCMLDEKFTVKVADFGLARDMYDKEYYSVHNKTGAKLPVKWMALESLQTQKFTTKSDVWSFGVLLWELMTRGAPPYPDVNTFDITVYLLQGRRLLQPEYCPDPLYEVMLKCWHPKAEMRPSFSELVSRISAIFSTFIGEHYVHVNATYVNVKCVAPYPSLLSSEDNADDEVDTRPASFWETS
Put plainly: In vitro kinase assay I (homogeneous time-resolved fluorescence tyrosine kinase assay). It counts as biochemical. The method, boiled down: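 Biotinylated peptide (0.5 μM) phosphorylated by 0.2 nM recombinant c-Met with 50 μM MgATP, 60 min at room temperature, pH 7.4, 5% DMSO. EDTA stop; HTRF read with Eu-anti-phosphotyrosine antibody and streptavidin-APC. IC50 from 4-parameter logistic fit.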
Consider `CCOC(=O)Nc1cccc(Cc2nn(-c3ccc(OC)nc3)ccc2=O)c1` [Example 31, ethyl (3-{[1-(6-methoxypyridin-3-yl)-4-oxo-1,4-dihydropyridazin-3-yl]methyl}phenyl)carbamate], for which the IC50 – broadly, the concentration at which inhibition is half-maximal – was below 100 nM.

Take `CCCOC(=O)Nc1cccc(Cc2nn(-c3ccc(OC)nc3)ccc2=O)c1` [Example 32, propyl (3-{[1-(6-methoxypyridin-3-yl)-4-oxo-1,4-dihydropyridazin-3-yl]methyl}phenyl)carbamate]: the IC50 was below 100 nM. Next, `COc1cnc(-c2cccc(Cc3nn(-c4ccc(OC)nc4)ccc3=O)c2)nc1` [Example 33, 1-(6-methoxypyridin-3-yl)-3-[3-(5-methoxypyrimidin-2-yl)benzyl]pyridazin-4(1H)-one]: below 100 nM; `CCOC(=O)Nc1cccc(Cc2nn(-c3cncc(F)c3)ccc2=O)c1` [Example 34, ethyl (3-{[1-(5-fluoropyridin-3-yl)-4-oxo-1,4-dihydropyridazin-3-yl]methyl}phenyl)carbamate]: below 100 nM; `CCCOC(=O)Nc1cccc(Cc2nn(-c3cncc(F)c3)ccc2=O)c1` [Example 35, propyl (3-{[1-(5-fluoropyridin-3-yl)-4-oxo-1,4-dihydropyridazin-3-yl]methyl}phenyl)carbamate]: below 100 nM. Turning to `COc1cnc(-c2cccc(Cc3nn(-c4cncc(F)c4)ccc3=O)c2)nc1` [Example 36, 1-(5-fluoropyridin-3-yl)-3-[3-(5-methoxypyrimidin-2-yl)benzyl]pyridazin-4(1H)-one], the IC50 is below 100 nM.

Turning to `COc1cnc(-c2cccc(Cc3nn(-c4cncc(C)c4)ccc3=O)c2)nc1` [Example 37, 3-[3-(5-methoxypyrimidin-2-yl)benzyl]-1-(5-methylpyridin-3-yl)pyridazin-4(1H)-one], the IC50 was below 100 nM.

As for `Cn1cc(-n2ccc(=O)c(Cc3cccc(-c4cnccn4)c3)n2)cn1` [Example 38, 1-(1-methyl-1H-pyrazol-4-yl)-3-[3-(pyrazin-2-yl)benzyl]pyridazin-4(1H)-one], the IC50 was in the range of 1000 to 3000 nM.

With `Cn1cc(-n2ccc(=O)c(Cc3cccc(-c4ccn(C)n4)c3)n2)cn1` [Example 39, 1-(1-methyl-1H-pyrazol-4-yl)-3-[3-(1-methyl-1H-pyrazol-3-yl)benzyl]pyridazin-4(1H)-one], the IC50 lay within 100 to 1000 nM.

As to `Cc1nccc(-c2cccc(Cc3nn(-c4cnn(C)c4)ccc3=O)c2)n1` [Example 40, 1-(1-methyl-1H-pyrazol-4-yl)-3-[3-(2-methylpyrimidin-4-yl)benzyl]pyridazin-4(1H)-one], the IC50 was in the range of 1000 to 3000 nM. For the compound `Cc1noc(-c2cccc(Cc3nn(-c4cnn(C)c4)ccc3=O)c2)n1` [Example 41, 3-[3-(3-methyl-1,2,4-oxadiazol-5-yl)benzyl]-1-(1-methyl-1H-pyrazol-4-yl)pyridazin-4(1H)-one], the IC50 fell in the range of 1000 to 3000 nM. As to `Cc1nc(-c2cccc(Cc3nn(-c4cnn(C)c4)ccc3=O)c2)no1` [Example 42, 3-[3-(5-methyl-1,2,4-oxadiazol-3-yl)benzyl]-1-(1-methyl-1H-pyrazol-4-yl)pyridazin-4(1H)-one], the IC50 was in the range of 100 to 1000 nM. In the case of `O=c1ccn(-c2ccc(Cl)cc2)nc1Cc1ccc2ncccc2c1` [Example 43, 1-(4-chlorophenyl)-3-(quinolin-6-ylmethyl)pyridazin-4(1H)-one], the IC50 was in the range of 100 to 1000 nM.

Regarding `Cc1ccc2c(Cc3nn(-c4cnn(C)c4)ccc3=O)cccc2n1` [Example 44, 1-(1-methyl-1H-pyrazol-4-yl)-3-[(2-methylquinolin-5-yl)methyl]pyridazin-4(1H)-one], the IC50 lay within 1000 to 3000 nM. Take `Cn1cc(-n2ccc(=O)c(Cc3cccc4c3CNC4=O)n2)cn1` [Example 45, 4-{[1-(1-methyl-1H-pyrazol-4-yl)-4-oxo-1,4-dihydropyridazin-3-yl]methyl}-2,3-dihydro-1H-isoindol-1-one]: the IC50 lay in the range of 1000 to 3000 nM. Take `Cn1cc(-n2ccc(=O)c(Cc3ccc4nccn4c3)n2)cn1` [Example 46, 3-(imidazo[1,2-a]pyridin-6-ylmethyl)-1-(1-methyl-1H-pyrazol-4-yl)pyridazin-4(1H)-one]: the IC50 fell in the range of 1000 to 3000 nM. For the compound `CCOC(=O)c1cccc(Cc2nn(-c3cnn(C)c3)ccc2=O)c1F` [Example 47, ethyl 2-fluoro-3-{[1-(1-methyl-1H-pyrazol-4-yl)-4-oxo-1,4-dihydropyridazin-3-yl]methyl}benzoate], the IC50 lay within 100 to 1000 nM. For `Cn1cc(-n2ccc(=O)c(Cc3cccc(CC(N)=O)c3)n2)cn1` [Example 48, 2-(3-{[1-(1-methyl-1H-pyrazol-4-yl)-4-oxo-1,4-dihydropyridazin-3-yl]methyl}phenyl)acetamide], the IC50 was in the range of 1000 to 3000 nM.

`Cn1cc(-n2ccc(=O)c(Cc3ccc4nn(C)cc4c3)n2)cn1` [Example 49, 3-[(2-methyl-2H-indazol-5-yl)methyl]-1-(1-methyl-1H-pyrazol-4-yl)pyridazin-4(1H)-one]: the IC50 was 1000 to 3000 nM. Next, `Cn1cc(-n2ccc(=O)c(Cc3cccc4[nH]ncc34)n2)cn1` [Example 50, 3-(1H-indazol-4-ylmethyl)-1-(1-methyl-1H-pyrazol-4-yl)pyridazin-4(1H)-one]: 1000 to 3000 nM; `Cn1cc(-n2ccc(=O)c(Cc3ccc4occc4c3)n2)cn1` [Example 51, 3-(1-benzofuran-5-ylmethyl)-1-(1-methyl-1H-pyrazol-4-yl)pyridazin-4(1H)-one]: 1000 to 3000 nM; `CCCOC(=O)Nc1cccc(Cc2nn(-c3cnn(C)c3)ccc2=O)c1` [Example 52, propyl (3-{[1-(1-methyl-1H-pyrazol-4-yl)-4-oxo-1,4-dihydropyridazin-3-yl]methyl}phenyl)carbamate]: below 100 nM. With `CC(C)COC(=O)Nc1cccc(Cc2nn(-c3cnn(C)c3)ccc2=O)c1` [Example 53, 2-methylpropyl (3-{[1-(1-methyl-1H-pyrazol-4-yl)-4-oxo-1,4-dihydropyridazin-3-yl]methyl}phenyl)carbamate], the 50% inhibitory concentration (IC50) was below 100 nM. `COCCOC(=O)Nc1cccc(Cc2nn(-c3cnn(C)c3)ccc2=O)c1` [Example 54, 2-methoxyethyl (3-{[1-(1-methyl-1H-pyrazol-4-yl)-4-oxo-1,4-dihydropyridazin-3-yl]methyl}phenyl)carbamate]: the IC50 is below 100 nM. For `Cn1cc(-n2ccc(=O)c(Cc3ccc4ncccc4c3)n2)cn1` [Example 55, 1-(1-methyl-1H-pyrazol-4-yl)-3-(quinolin-6-ylmethyl)pyridazin-4(1H)-one], the IC50 was in the range of 100 to 1000 nM. Turning to `CCCOC(=O)Nc1cccc(Cc2nn(-c3cc(Cl)nc(Cl)c3)ccc2=O)c1` [Example 56, propyl (3-{[1-(2,6-dichloropyridin-4-yl)-4-oxo-1,4-dihydropyridazin-3-yl]methyl}phenyl)carbamate], the IC50 is below 100 nM.

With `CCCn1cnc(-c2cccc(Cc3nn(-c4cnn(C)c4)ccc3=O)c2)n1` [Example 57, 1-(1-methyl-1H-pyrazol-4-yl)-3-[3-(1-propyl-1H-1,2,4-traizol-3-yl)benzyl]pyridazin-4(1H)-one], the IC50 is below 100 nM.

With `Cn1cc(-n2ccc(=O)c(Cc3cccc(-c4nnn(C)n4)c3)n2)cn1` [Example 58, 1-(1-methyl-1H-pyrazol-4-yl)-3-[3-(2-methyl-2H-tetrazol-5-yl)benzyl]pyridazin-4(1H)-one], the IC50 was in the range of 100 to 1000 nM.

`CCOc1cnc2ccc(Cc3nn(-c4cnn(C)c4)ccc3=O)cc2c1` [Example 59, 3-[(3-ethoxyquinolin-6-yl)methyl]-1-(1-methyl-1H-pyrazol-4-yl)pyridazin-4(1H)-one]: the IC50 was in the range of 100 to 1000 nM. As for `Cn1cc(-n2ccc(=O)c(Cc3ccc4ncc(OCCN5CCOCC5)cc4c3)n2)cn1` [Example 60, 1-(1-methyl-1H-pyrazol-4-yl)-3-{[3-(2-morpholin-4-ylethoxy)quinolin-6-yl]methyl}pyridazin-4(1H)-one], the IC50 fell in the range of 100 to 1000 nM. `COCCOc1cnc2ccc(Cc3nn(-c4cnn(C)c4)ccc3=O)cc2c1` [Example 61, 3-{[3-(2-methoxyethoxy)quinolin-6-yl]methyl}-1-(1-methyl-1H-pyrazol-4-yl)pyridazin-4(1H)-one]: the IC50 lay within 100 to 1000 nM.

On to `Cn1cc(-n2ccc(=O)c(Cc3ccc4ncc(OCC5(C)COC5)cc4c3)n2)cn1` [Example 62, 3-({3-[(3-methyloxetan-3-yl)methoxy]quinolin-6-yl}methyl)-1-(1-methyl-1H-pyrazol-4-yl)pyridazin-4(1H)-one], for which the IC50 was below 100 nM. As for `CCCOc1cnc2ccc(Cc3nn(-c4cnn(C)c4)ccc3=O)cc2c1` [Example 63, 1-(1-methyl-1H-pyrazol-4-yl)-3-[(3-propoxyquinolin-6-yl)methyl]pyridazin-4(1H)-one], the IC50 was below 100 nM. Consider `CCOc1cnc2ccc(Cc3nn(-c4cc(F)c(F)c(F)c4)ccc3=O)cc2c1` [Example 65, 3-[(3-ethoxyquinolin-6-yl)methyl]-1-(3,4,5-trifluorophenyl)pyridazin-4(1H)-one], for which the IC50 was in the range of 100 to 1000 nM. On to `COCCn1cnc(-c2cccc(Cc3nn(-c4cnn(C)c4)ccc3=O)c2)n1` [Example 66, 3-{3-[1-(2-methoxyethyl)-1H-1,2,4-triazol-3-yl]benzyl}-1-(1-methyl-1H-pyrazol-4-yl)pyridazin-4(1H)-one], for which the IC50 is below 100 nM.

With `Cn1cc(-n2ccc(=O)c(Cc3cccc(-c4ncc(OCc5ccccc5)cn4)c3)n2)cn1` [Example 67, 3-{3-[5-(benzyloxy)pyrimidin-2-yl]benzyl}-1-(1-methyl-1H-pyrazol-4-yl)pyridazin-4(1H)-one], the IC50 is below 100 nM. Under `CC(C)COC(=O)Nc1cccc(Cc2nn(-c3ccc(Br)cc3)ccc2=O)c1` [Example 68, 2-methylpropyl (3-{[1-(4-bromophenyl)-4-oxo-1,4-dihydropyridazin-3-yl]methyl}phenyl)carbamate] stands below 100 nM; under `CC(C)COC(=O)Nc1cccc(Cc2nn(-c3cccc(Br)c3)ccc2=O)c1` [Example 69, 2-methylpropyl (3-{[1-(3-bromophenyl)-4-oxo-1,4-dihydropyridazin-3-yl]methyl}phenyl)carbamate], below 100 nM.
